Where “and” joins values, the source holds several entries; their conditions need not be identical. Equal entries are not always repeated.

The text below walks through data of patent publication US20040126751A1 (priority 2002, published 2004).

Assay [1] deals with ATP-dependent potassium current (IK(ATP)). Kind of assay: whole-cell patch-clamp of pinacidil-primed IK(ATP) in isolated ventricular myocytes. Format: cell-based, guinea pig. Conditions: for outward current density at +30 mV under control conditions: before pinacidil. The source says: The electrophysiological properties of a cardiac myocyte are strongly affected by its energetic condition. Particularly, the adenosine triphosphate (ATP)-dependent potassium current (IK(ATP)) is known to link bioenergetic metabolism with membrane excitability by sensing intracellular concentrations of ATP and adenosine diphosphate (ADP). Under physiological conditions, ATP-dependent potassium channels (K(ATP)-channels) are predominantly closed due to inhibition by intracellular ATP (ATPi). However, when the ATPi concentration falls below certain values (like in pathological states such as acute myocardial ischaemia), the K(ATP)-channels open. […] Thus, the amount of IK(ATP) activation induced by these drugs serves as an indicator of the intracellular ATP-content.
In this example, guinea pig ventricular myocytes were isolated by Langendorff perfusion using collagenase, as is described in H. M. Piper et al., Culturing of calcium stable adult cardiac myocytes, J. Mol. Cell Cardiol. 14 (1982), pp. 397-412. The isolated myocytes were stored in a cell culture medium M 199 (Sigma™, St. Louis, Mo.), supplemented with 5 μg/ml penicillin and 5 IU/ml of streptomycin and were kept in an incubator at 37° C. All experiments were performed within 24 hours after isolation of the myocytes.
Membrane currents were recorded using the whole-cell single electrode voltage-clamp configuration of the patch-clamp technique (see O. P. Hamill et al., Improved patch-clamp techniques for high-resolution current recording from cells and cell-free membrane patches, Pflüger's Arch. 391 (1981), pp. 85-100) using a List L/M-EPC 7 amplifier (List™, Darmstadt, Germany) as previously described by Pelzmann and coworkers in B. Pelzmann et al., Effects of K^+ channel openers on IK(ATP) of human atrial myocytes at physiological temperatures, Naunyn-Schmiedeberg's Arch. […] Only quiescent rod-shaped cells with clear cross striation were used for voltage-clamp experiments. Cell membrane capacitance (Cm) was determined by integration of the capacitive transient elicited by a 10 mV hyperpolarizing pulse from −50 mV. Cm (up to 100 pF) and series resistance (Rs, by at least 50%) were compensated. Voltage-clamp pulses were generated with an IBM-compatible computer connected to a D/A and A/D converter (Digidata 1200™, Axon Instruments, Foster City, USA). Data acquisition and analyses were performed using pCLAMP 5.7.1 software (Axon Instruments). In order to allow equilibration of the pipette solution with the cytosol, current recordings were started five minutes after rupture of the membrane patch.
Two experimental protocols were used in these examples. Modulation of IK(ATP) by drugs was evaluated as the change of outward current density (current amplitudes divided by Cm (pA/pF) in order to compensate for variations in cell size) at +30 mV in response to a 2 second ramp from −100 to +60 mV (Iramp). Time course of IK(ATP) activation and blockade was studied by recording the holding current at −40 mV (Ihold(−40 mV)). Stock solutions of IK(ATP) channel blocker glibenclamide (Sigma™) and of K(ATP) channel opener pinacidil (Sigma™) were prepared in dimethyl sulfoxide (DMSO). Averaged data are expressed as a mean±standard deviation (or standard error of the mean, SEM), with n=number of cells. Error bars in the figures represent standard deviations (except in FIG. 5).
(§1) Statistical significance was determined by a two-tailed Student's t-test or, if more than two conditions were compared, by one-way analysis of variance (ANOVA) with the LSD (least significant difference) post hoc test. Differences were considered significant when P<0.05.
A general note: The patch-clamp technique gives a direct electrical read-out from membranes.

The subject of a further assay is rat striatal slices. Conditions: cited from earlier work.
The next assay has as its system cardiomyocytes. Kind of assay: HPLC determination of intracellular adenine nucleotide content of cardiomyocytes. Conditions: four hours. Format: cell-based, guinea pig. The procedure: The analytical method used for the determination of adenine nucleotides was that reported in Hallström, S. et al., “S-nitroso human serum albumin treatment reduces ischemia/reperfusion injury in skeletal muscle via nitric oxide release,” Circulation, 105 (2002), 3023-3038 (“Hallström et al.”). In brief, the only alterations from the analytical method reported by Hallström et al. were as follows: separation was performed on a Hypersil ODS column (5 μm, 250 mm×4 mm I.D.) using a Waters™ 717 plus Autosampler, two constaMetric™ III pumps, a gradient controller (LDC/Milton Roy) and a Waters™ 969 photodiode array detector; detector signals (absorbance at 254 nm) were recorded with an AGC™ Personal Computer; and the program Millennium (Waters™) was used for data requisition and analysis. Cardiomyocytes were deproteinized with 250 μL of 0.4 M/L perchloric acid. After centrifugation (12,000 g), 200 μL of the acid extract were neutralized with 12.5 μL of 2 M potassium carbonate (4° C.). The supernatant (10 μL) obtained after centrifugation was used for High Performance Liquid Chromatography (HPLC) analysis. The pellets of the acid extract were dissolved in 1 mL of 0.1 M sodium hydroxide and further diluted 1:10 with physiologic saline for protein determination (BCA Protein Assay, Pierce). The percentage of living cells was estimated by determining the ratio of the number of rod shaped to rounded myocytes. At least 600 myocytes were counted for each preparation.
as §1

The subject of the next assay is PC 12 cells. Conditions: NADH-supplementation of PC 12 cells; cited from earlier work.
The mark [2] stands for this setting: incubation in amounts equimolar to 400 μg/ml NADH.

Turning to `NC(=O)c1ccc[n+]([C@@H]2O[C@H](COP(=O)([O-])OP(=O)(O)OC[C@H]3O[C@@H](n4cnc5c(N)ncnc54)[C@H](O)[C@@H]3O)[C@@H](O)[C@H]2O)c1` [NAD^+, β-nicotinamide adenine dinucleotide, oxidized form], in assay [1] (setting [2]), the “outward current density after washout of pinacidil” value came to 1.44±0.25 pA/pF, the “outward current density at +30 mV after addition of 30 μM pinacidil” value is on record as 29.0±7.01 pA/pF and the “outward current density at +30 mV under control conditions” value is on record as 1.96±0.20 pA/pF.
For `NC(=O)c1cccnc1` [nicotinamide], in assay [1] (setting [2]), the “outward current density after washout of pinacidil” value worked out at 1.13±0.15 pA/pF, the “outward current density at +30 mV after addition of 30 μM pinacidil” value turned out to be 30.5±4.83 pA/pF and the “outward current density at +30 mV under control conditions” value is recorded as 2.01±0.36 pA/pF.
In the case of `NC(=O)C1=CN(C2OC(COP(=O)([O-])OP(=O)([O-])OCC3OC(n4cnc5c(N)ncnc54)C(O)C3O)C(O)C2O)C=CC1.[Na+].[Na+]` (stereo not drawn) [NADH, β-nicotinamide adenine dinucleotide, reduced form, disodium salt], the “outward current density at +30 mV after application of pinacidil” value in assay [1] (incubation 200 μg/ml, 30 μM pinacidil, 4.3 mM ATPi) is listed as 25.4±3.97 pA/pF. The “outward current density at +30 mV under control conditions” value in assay [1] (incubation 200 μg/ml, 4-6 hours) came out at 1.82±0.33 pA/pF; in assay [1] (incubation 300 μg/ml, 4-6 hours), 1.72±0.19 pA/pF; in assay [1] (incubation 400 μg/ml, 4-6 hours) it was 1.70±0.18 pA/pF; in assay [1] (incubation 800 μg/ml, 4-6 hours), 1.76±0.36 pA/pF; in assay [1] (incubation 1600 μg/ml, 4-6 hours), 2.53±0.49 pA/pF. The “outward current density after washout of pinacidil” value in assay [1] (incubation 300 μg/ml) came out at 1.09±0.14 pA/pF; in assay [1] (incubation 800 μg/ml), 1.75±0.48 pA/pF. Besides, in the assay with rat striatal slices, the dopamine release result was “increase of dopamine release”. Further, the “ATP content in cardiomyocytes” value in the assay on cardiomyocytes (400 mcg per ml cell culture medium, control 35.35±2.57) is on record as 45.59±1.88 nmol/mg protein of living cells. For the same compound, the “ADP content in cardiomyocytes compared to control” value with cardiomyocytes (400 mcg per ml) is “no significant alteration”. In addition, in the assay on cardiomyocytes (400 mcg per ml), the “AMP content in cardiomyocytes compared to control” value was “no significant alteration”. In addition, the dopamine production result in the assay with PC 12 cells was “increased dopamine production”.
Consider `CC(N/C(=N\C#N)Nc1ccncc1)C(C)(C)C` (stereo not drawn) [pinacidil], for which the “outward current density at +30 mV (Iramp)” value in assay [1] (30 μM pinacidil, 1 mM ATPi) was 52.2±13.8 pA/pF; in assay [1] (30 μM pinacidil, 4.3 mM ATPi, control myocytes), 28.9±3.38 pA/pF and 28.3±3.26 pA/pF. For the same compound, the “outward current density at +30 mV after washout” value in assay [1] (after washout of 30 μM pinacidil (5 minutes), control myocytes) was 1.81±0.22 pA/pF and 1.81±0.21 pA/pF.
On to `COc1ccc(Cl)cc1C(=O)NCCc1ccc(S(=O)(=O)NC(=O)NC2CCCCC2)cc1` [glibenclamide], for which the “inhibition of pinacidil-activated IK(ATP)” value in assay [1] (1 μM glibenclamide after 30 μM pinacidil) is reported as “completely inhibited”. The “effect on basal Iramp” value in assay [1] (physiological conditions, 4.3 mM ATPi, data not shown) is listed as “did not affect Iramp”.
